Measured values taken from patent publication US20040132764A1, “Antibiotics for the treatment of infections in acidic environments” (Morphochem Aktiengesellschaft fuer Kombinatorische Chemie, priority 2002, published 2004).
In brackets after ≈: the same amount, converted by molar mass. Where two headings read alike, the source gives them in different places.

Tested on: bacterial strains from the Morphochem collection
Test: MIC determination by microdilution method (NCCLS guidelines, IsoSensitest broth) with pH of the test medium varied
Format: cell-based
Conditions: strain not named
Procedure: MICs (minimal inhibitory concentrations) were determined by a microdilution method following NCCLS guidelines, except that IsoSensitest broth (Oxoid; Basingstroke, UK) was used (National Committee for Clinical Laboratory Standards “Methods for Dilution Antimicrobial Susceptibility Tests for Bacteria that Grow Aerobically”, 4th ed.; Approved standard: NCCLS Document M7-A4; National Committee for Clinical Laboratory Satandars: Villanova, Pa., USA, 1997). The medium was supplemented with 3% lysed horse blood for fastidious organisms. Serial dilutions in 96-well plates were prepared with the help of a Biomek 2000 robot. The pH of the test medium was varied from 7.8 to 6.4. The bacterial strains used were from the Morphochem collection. Clinical isolates were originally obtained from the Kantonspital Basel, Switzerland, and from other European and US hospitals.
pH-dependent antibacterial activity (MIC (μg/mL) at pH): […]

[1] = pH 6.4 of test medium, read-out: pH-dependent antibacterial activity (MIC at pH) 6.4
[2] = pH 6.8 of test medium, read-out: pH-dependent antibacterial activity (MIC at pH) 6.8
[3] = pH 7.4 of test medium, read-out: pH-dependent antibacterial activity (MIC at pH) 7.4
[4] = pH 7.8 of test medium, read-out: pH-dependent antibacterial activity (MIC at pH) 7.8

SMILES: CC(=O)NC[C@H]1CN(c2ccc(N3CCN(c4cc5c(cc4F)c(=O)c(C(=O)O)cn5C4CC4)CC3)c(F)c2)C(=O)O1 [Example 1, 7-(4-{4-[5-(acetylamino-methyl)-2-oxo-oxazolidin-3-yl]-2-fluoro-phenyl}-piperazin-1-yl)-1-cyclopropyl-6-fluoro-4-oxo-1,4-dihydro-quinoline-3-carboxylic Acid]
- MIC [1]: 0.03 µg/mL (≈ 0.0516 µM)
- MIC [2]: 0.125 µg/mL (≈ 0.215 µM)
- MIC [3]: 0.25 µg/mL (≈ 0.43 µM)
- MIC [4]: 0.5 µg/mL (≈ 0.86 µM)

SMILES: CC(=O)NC[C@H]1CN(c2ccc(N[C@@H]3CCN(c4cc5c(cc4F)c(=O)c(C(=O)O)cn5C4CC4)C3)c(F)c2)C(=O)O1 [Example 4]
- MIC [1]: 0.03 µg/mL (≈ 0.0516 µM)
- MIC [2]: 0.06 µg/mL (≈ 0.103 µM)
- MIC [3]: 0.25 µg/mL (≈ 0.43 µM)
- MIC [4]: 0.5 µg/mL (≈ 0.86 µM)

SMILES: CC(=O)NC[C@H]1CN(c2ccc(N3CCN(c4nc5c(cc4F)c(=O)c(C(=O)O)cn5C4CC4)CC3)c(F)c2)C(=O)O1 [Example 10]
- MIC [1]: 0.125 µg/mL (≈ 0.215 µM)
- MIC [2]: 0.25 µg/mL (≈ 0.429 µM)
- MIC [3]: 0.5 µg/mL (≈ 0.858 µM)
- MIC [4]: 1 µg/mL (≈ 1.72 µM)

SMILES: CC(=O)NC[C@H]1CN(c2ccc(N3CCOCC3)c(F)c2)C(=O)O1 [linezolid, reference compound]
- MIC [1]: 0.5 µg/mL (≈ 1.48 µM)
- MIC [2]: 0.5 µg/mL (≈ 1.48 µM)
- MIC [3]: 1 µg/mL (≈ 2.96 µM)
- MIC [4]: 1 µg/mL (≈ 2.96 µM)
